#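 Grown in 96-well plates, cells were treated for 48 hours with each compound at five concentrations. Insufficient inhibition: endpoint recorded as highest concentration tested. TGI denotes the concentration required for complete inhibition of growth.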
# Tested on: SK-MEL-2 melanoma
# Assay: DTP human tumour cell line panel, 48 h
row,SMILES,TGI [µM]
1,COc1cccc2c1N[S@](=O)S2,> 100

# Tested on: SK-MEL-28 melanoma
# Assay: DTP human tumour cell line panel, 48 h
row,SMILES,TGI [µM]
1,CC(N)Cc1ccc(F)cc1 (stereo not given),> 100
2,CNCCCCN(C)/[N+]([O-])=N\O,> 100
3,CCNC(=O)N(CC)CN(CC)C(=O)NCC,> 100
4,O=C(CCc1n[nH]c(=S)o1)Nc1ccc(Cl)cc1Cl,> 100
5,COc1cccc2c1N[S@](=O)S2,> 100

# Tested on: SK-MEL-5 melanoma
# Assay: DTP human tumour cell line panel, 48 h
row,SMILES,TGI [µM]
1,CC(N)Cc1ccc(F)cc1 (stereo not given),> 100
2,CNCCCCN(C)/[N+]([O-])=N\O,> 100
3,O=C(CCc1n[nH]c(=S)o1)Nc1ccc(Cl)cc1Cl,> 100

# Tested on: SK-OV-3 ovarian
# Assay: DTP human tumour cell line panel, 48 h
row,SMILES,TGI [µM]
1,CC(N)Cc1ccc(F)cc1 (stereo not given),> 100
2,CNCCCCN(C)/[N+]([O-])=N\O,> 100
3,CCNC(=O)N(CC)CN(CC)C(=O)NCC,> 100
4,O=C(CCc1n[nH]c(=S)o1)Nc1ccc(Cl)cc1Cl,> 100
5,COc1cccc2c1N[S@](=O)S2,> 100

# Tested on: SN12C renal
# Assay: DTP human tumour cell line panel, 48 h
row,SMILES,TGI [µM]
1,CC(N)Cc1ccc(F)cc1 (stereo not given),> 100
2,CNCCCCN(C)/[N+]([O-])=N\O,> 100
3,CCNC(=O)N(CC)CN(CC)C(=O)NCC,> 100
4,O=C(CCc1n[nH]c(=S)o1)Nc1ccc(Cl)cc1Cl,> 100
5,COc1cccc2c1N[S@](=O)S2,> 100

# Tested on: SNB-19 CNS
# Assay: DTP human tumour cell line panel, 48 h
row,SMILES,TGI [µM]
1,CC(N)Cc1ccc(F)cc1 (stereo not given),> 100
2,CNCCCCN(C)/[N+]([O-])=N\O,> 100
3,CCNC(=O)N(CC)CN(CC)C(=O)NCC,> 100
4,O=C(CCc1n[nH]c(=S)o1)Nc1ccc(Cl)cc1Cl,> 100
5,COc1cccc2c1N[S@](=O)S2,> 100

# Tested on: SNB-75 CNS
# Assay: DTP human tumour cell line panel, 48 h
row,SMILES,TGI [µM]
1,CC(N)Cc1ccc(F)cc1 (stereo not given),> 100
2,CNCCCCN(C)/[N+]([O-])=N\O,> 100
3,CCNC(=O)N(CC)CN(CC)C(=O)NCC,> 100
4,O=C(CCc1n[nH]c(=S)o1)Nc1ccc(Cl)cc1Cl,> 100
5,COc1cccc2c1N[S@](=O)S2,> 100

# Tested on: SNB-78 CNS
# Assay: DTP human tumour cell line panel, 48 h
row,SMILES,TGI [µM]
1,CC(N)Cc1ccc(F)cc1 (stereo not given),> 100
2,CNCCCCN(C)/[N+]([O-])=N\O,> 100
3,CCNC(=O)N(CC)CN(CC)C(=O)NCC,> 100
4,O=C(CCc1n[nH]c(=S)o1)Nc1ccc(Cl)cc1Cl,> 100
5,COc1cccc2c1N[S@](=O)S2,> 100

# Tested on: SR leukemia
# Assay: DTP human tumour cell line panel, 48 h
row,SMILES,TGI [µM]
1,CC(N)Cc1ccc(F)cc1 (stereo not given),> 100
2,COc1cccc2c1N[S@](=O)S2,> 100

# Tested on: SW-620 colon
# Assay: DTP human tumour cell line panel, 48 h
row,SMILES,TGI [µM]
1,CC(N)Cc1ccc(F)cc1 (stereo not given),> 100
2,CNCCCCN(C)/[N+]([O-])=N\O,> 100
3,CCNC(=O)N(CC)CN(CC)C(=O)NCC,> 100
4,O=C(CCc1n[nH]c(=S)o1)Nc1ccc(Cl)cc1Cl,29.9
5,COc1cccc2c1N[S@](=O)S2,> 100

# Tested on: TK-10 renal
# Assay: DTP human tumour cell line panel, 48 h
row,SMILES,TGI [µM]
1,CC(N)Cc1ccc(F)cc1 (stereo not given),> 100
2,O=C(CCc1n[nH]c(=S)o1)Nc1ccc(Cl)cc1Cl,> 100
3,COc1cccc2c1N[S@](=O)S2,> 100

# Tested on: U251 CNS
# Assay: DTP human tumour cell line panel, 48 h
row,SMILES,TGI [µM]
1,CC(N)Cc1ccc(F)cc1 (stereo not given),> 100
2,CNCCCCN(C)/[N+]([O-])=N\O,> 100
3,O=C(CCc1n[nH]c(=S)o1)Nc1ccc(Cl)cc1Cl,> 100
4,COc1cccc2c1N[S@](=O)S2,> 100

# Tested on: UACC-257 melanoma
# Assay: DTP human tumour cell line panel, 48 h
row,SMILES,TGI [µM]
1,CC(N)Cc1ccc(F)cc1 (stereo not given),> 100
2,CNCCCCN(C)/[N+]([O-])=N\O,> 100
3,CCNC(=O)N(CC)CN(CC)C(=O)NCC,> 100
4,O=C(CCc1n[nH]c(=S)o1)Nc1ccc(Cl)cc1Cl,> 100
5,COc1cccc2c1N[S@](=O)S2,> 100

# Tested on: UACC-62 melanoma
# Assay: DTP human tumour cell line panel, 48 h
row,SMILES,TGI [µM]
1,CC(N)Cc1ccc(F)cc1 (stereo not given),> 100
2,CNCCCCN(C)/[N+]([O-])=N\O,> 100
3,CCNC(=O)N(CC)CN(CC)C(=O)NCC,> 100
4,O=C(CCc1n[nH]c(=S)o1)Nc1ccc(Cl)cc1Cl,> 100
5,COc1cccc2c1N[S@](=O)S2,> 100

# Tested on: UO-31 renal
# Assay: DTP human tumour cell line panel, 48 h
row,SMILES,TGI [µM]
1,CC(N)Cc1ccc(F)cc1 (stereo not given),> 100
2,CNCCCCN(C)/[N+]([O-])=N\O,> 100
3,CCNC(=O)N(CC)CN(CC)C(=O)NCC,> 100
4,O=C(CCc1n[nH]c(=S)o1)Nc1ccc(Cl)cc1Cl,> 100
5,COc1cccc2c1N[S@](=O)S2,> 100

# Tested on: XF 498 CNS
# Assay: DTP human tumour cell line panel, 48 h
row,SMILES,TGI [µM]
1,CCNC(=O)N(CC)CN(CC)C(=O)NCC,> 100
2,COc1cccc2c1N[S@](=O)S2,> 100

# Source: PubChem BioAssay (NCI)
